Experimental data from US20200038416A1, “METHODS OF TREATING CARDIAC CONDUCTION DEFECTS USING AMINOSTEROL COMPOSITIONS” (Enterin, Inc., priority 2018, published 2020).

Experiments:
[1] = test system: patients with PD; test: Sleep diary: total sleep time and REM-behavior disorder; type: in vivo, human
Experimental: FIG. 3 is a chart of total sleep time in relation to squalamine dose. Total sleep time was obtained from the sleep diary by subtracting awake time during the night from total time spent in bed. Total sleep time per night was logged for each patient at baseline, each dosing period and at washout, and the means were determined. The light grey bar represents the baseline value for each cohort at a given dose level and the dark grey bar represents the value for the same cohort at the stated dose of squalamine (ENT-01; Kenterin™). The number of patients represented at each value are: Baseline, 33; 75 mg, 21; 100 mg, 28; 125 mg, 18; 150 mg, 15; 175 mg, 12; 200 mg, 7; 225 mg, 3; 250 mg, 2; washout, 33. P values were as follows: 75 mg, p=0.4; 100 mg, p=0.1; 125 mg, p=0.3; 150 mg, p=0.07; 175 mg, p=0.03; 200 mg, p=0.3; 225 mg, p=0.5; 250 mg, p=0.3; wash-out, p=0.04 (paired t test).
(5) Sleep Diary (participants completed a sleep diary on a daily basis throughout the study. The diaries included time into bed and estimated time to sleep as well as wake time and duration during the night.); […]

[2] = test system: patients with PD and constipation; test: Phase 2 trial safety and adverse event profile (Stages 1 and 2); type: in vivo, human
Experimental: Tolerability limits included diarrhea or vomiting.
In Stage 2, 34 patients were evaluated.

[3] = Stage 1, 10 dosed, unrelated to ENT-01

**Q.** How did the “RBD and total sleep time” value ([1]; dose escalation, Stage 2) turn out when `CC(C)[C@@H](CC[C@@H](C)[C@H]1CC[C@H]2[C@@H]3[C@H](O)C[C@H]4C[C@@H](NCCCNCCCCN)CC[C@]4(C)[C@H]3CC[C@]12C)OS(=O)(=O)O` (single isomer, unassigned) [squalamine (ENT-01), squalamine] was run?
**A.** Its value is “improved progressively in a dose-dependent manner”.

**Q.** And the “total sleep time versus baseline by dose” value ([1]; doses beyond 125 mg)?
**A.** The value was “consistently higher than baseline beyond 125 mg”.

**Q.** What about the “share of AEs confined to the GI tract” value ([2]; Stage 1) of the same molecule?
**A.** The value was 88%.

**Q.** And the patients with diarrhea ([2]; Stage 1, 4/10)?
**A.** The patients with diarrhea was 40%.

**Q.** What about the patients with nausea ([2]; Stage 1, 4/10) of the same molecule?
**A.** The patients with nausea was 40%.

**Q.** What about the “Abdominal pain, Mild: patients with adverse event” value ([2]; Stage 1, 10 dosed) of the same molecule?
**A.** Its value is 2 (20) n, %.

**Q.** What about the “Abdominal pain, Moderate: patients with adverse event” value ([2]; Stage 1, 10 dosed) of the same molecule?
**A.** Its value is 3 (30) n, %.

**Q.** And the “Blood in urine, Moderate: patients with adverse event” value ([2]; Stage 1, 10 dosed)?
**A.** Its value is 0 n, %.

**Q.** What about the “Diarrhea, Mild: patients with adverse event” value ([2]; Stage 1, 10 dosed) of the same molecule?
**A.** The value was 1 (10) n, %.

**Q.** What about the “Diarrhea, Moderate: patients with adverse event” value ([2]; Stage 1, 10 dosed) of the same molecule?
**A.** The value was 3 (30) n, %.

**Q.** What about the “Diarrhea, Severe: patients with adverse event” value ([2]; Stage 1, 10 dosed) of the same molecule?
**A.** The value was 0 n, %.

**Q.** What about the “Difficulty falling asleep, Mild: patients with adverse event” value ([2]; Stage 1, 10 dosed) of the same molecule?
**A.** The value was 0 n, %.

**Q.** And the “Difficulty falling asleep, Moderate: patients with adverse event” value ([2]; Stage 1, 10 dosed)?
**A.** Its value is 0 n, %.

**Q.** What about the “Dizziness, Mild: patients with adverse event” value ([2]; Stage 1, 10 dosed) of the same molecule?
**A.** The value was 0 n, %.

**Q.** And the “Dizziness, Moderate: patients with adverse event” value ([2]; Stage 1, 10 dosed)?
**A.** The value was 0 n, %.

**Q.** And the “Eye infection, Mild: patients with adverse event” value ([2]; Stage 1, 10 dosed)?
**A.** Its value is 0 n, %.

**Q.** What about the “Eye infection, Moderate: patients with adverse event” value ([2]; Stage 1, 10 dosed) of the same molecule?
**A.** Its value is 0 n, %.

**Q.** And the “Flatulence, Mild: patients with adverse event” value ([2]; Stage 1, 10 dosed)?
**A.** The value was 2 (20) n, %.

**Q.** And the “Flatulence, Moderate: patients with adverse event” value ([2]; Stage 1, 10 dosed)?
**A.** The value was 0 n, %.

**Q.** And the “Headache, Mild: patients with adverse event” value ([2]; Stage 1, 10 dosed)?
**A.** The value was 1 (10) n, %.

**Q.** What about the “Headache, Moderate: patients with adverse event” value ([2]; Stage 1, 10 dosed) of the same molecule?
**A.** Its value is 0 n, %.

**Q.** And the “Increased urinary frequency, Mild: patients with adverse event” value ([2]; Stage 1, 10 dosed)?
**A.** The value was 0 n, %.

**Q.** And the “Increased urinary frequency, Moderate: patients with adverse event” value ([2]; Stage 1, 10 dosed)?
**A.** Its value is 0 n, %.

**Q.** What about the “Loss of appetite, Moderate: patients with adverse event” value ([2]; Stage 1, 10 dosed) of the same molecule?
**A.** Its value is 0 n, %.

**Q.** What about the “Lower GI bleed, Severe: patients with adverse event” value ([2]; Stage 1, 10 dosed) of the same molecule?
**A.** Its value is 0 n, %.

**Q.** What about the “Nausea, Mild: patients with adverse event” value ([2]; Stage 1, 10 dosed) of the same molecule?
**A.** The value was 4 (40) n, %.

**Q.** What about the “Nausea, Moderate: patients with adverse event” value ([2]; Stage 1, 10 dosed) of the same molecule?
**A.** Its value is 0 n, %.

**Q.** And the “Skin lesions-rash, Mild: patients with adverse event” value ([2]; Stage 1, 10 dosed)?
**A.** The value was 0 n, %.

**Q.** What about the “Skin lesions-rash, Moderate: patients with adverse event” value ([2]; Stage 1, 10 dosed) of the same molecule?
**A.** The value was 0 n, %.

**Q.** What about the “Urinary retention, Mild: patients with adverse event” value ([2]; Stage 1, 10 dosed) of the same molecule?
**A.** The value was 0 n, %.

**Q.** What about the “Urinary retention, Moderate: patients with adverse event” value ([2]; Stage 1, 10 dosed) of the same molecule?
**A.** Its value is 0 n, %.

**Q.** What about the “Urinary tract infection, Mild: patients with adverse event” value ([2]; Stage 1, 10 dosed) of the same molecule?
**A.** Its value is 0 n, %.

**Q.** And the “Urinary tract infection, Moderate: patients with adverse event” value ([2]; Stage 1, 10 dosed)?
**A.** The value was 0 n, %.

**Q.** What about the “Vomiting, Mild: patients with adverse event” value ([2]; Stage 1, 10 dosed) of the same molecule?
**A.** The value was 1 (10) n, %.

**Q.** What about the “Vomiting, Moderate: patients with adverse event” value ([2]; Stage 1, 10 dosed) of the same molecule?
**A.** The value was 0 n, %.

**Q.** What about the “Worsening acid reflux, Mild: patients with adverse event” value ([2]; Stage 1, 10 dosed) of the same molecule?
**A.** The value was 0 n, %.

**Q.** What about the “Worsening acid reflux, Moderate: patients with adverse event” value ([2]; Stage 1, 10 dosed) of the same molecule?
**A.** Its value is 0 n, %.

**Q.** And the “Worsening hemorrhoid, Mild: patients with adverse event” value ([2]; Stage 1, 10 dosed)?
**A.** Its value is 0 n, %.

**Q.** What about the “Worsening hemorrhoid, Moderate: patients with adverse event” value ([2]; Stage 1, 10 dosed) of the same molecule?
**A.** The value was 0 n, %.

**Q.** And the “Blood in urine, Mild: patients with adverse event” value [2, 3]?
**A.** The value was 1 (10) n, %.

**Q.** And the “Loss of appetite, Mild: patients with adverse event” value [2, 3]?
**A.** Its value is 1 (10) n, %.

**Q.** What about the “share of AEs confined to the GI tract” value ([2]; Stage 2) of the same molecule?
**A.** Its value is 63%.

**Q.** And the “Abdominal pain, Mild: patients with adverse event” value ([2]; Stage 2, 34 dosed)?
**A.** The value was 4 n.

**Q.** And the “Abdominal pain, Moderate: patients with adverse event” value ([2]; Stage 2, 34 dosed)?
**A.** Its value is 2 n.

**Q.** And the “Blood in urine, Mild: patients with adverse event” value ([2]; Stage 2, 34 dosed)?
**A.** Its value is 0 n.

**Q.** And the “Blood in urine, Moderate: patients with adverse event” value ([2]; Stage 2, 34 dosed)?
**A.** Its value is 0 n.

**Q.** And the “Diarrhea, Mild: patients with adverse event” value ([2]; Stage 2, 34 dosed)?
**A.** Its value is 12 n.

**Q.** And the “Diarrhea, Moderate: patients with adverse event” value ([2]; Stage 2, 34 dosed)?
**A.** Its value is 2 n.

**Q.** And the “Diarrhea, Severe: patients with adverse event” value ([2]; Stage 2, 34 dosed)?
**A.** Its value is 1 n.

**Q.** What about the “Difficulty falling asleep, Mild: patients with adverse event” value ([2]; Stage 2, 34 dosed) of the same molecule?
**A.** Its value is 1 n.

**Q.** And the “Difficulty falling asleep, Moderate: patients with adverse event” value ([2]; Stage 2, 34 dosed)?
**A.** Its value is 0 n.

**Q.** And the “Dizziness, Mild: patients with adverse event” value ([2]; Stage 2, 34 dosed)?
**A.** The value was 7 n.

**Q.** And the “Dizziness, Moderate: patients with adverse event” value ([2]; Stage 2, 34 dosed)?
**A.** The value was 1 n.

**Q.** And the “Eye infection, Mild: patients with adverse event” value ([2]; Stage 2, 34 dosed)?
**A.** The value was 1 n.

**Q.** What about the “Eye infection, Moderate: patients with adverse event” value ([2]; Stage 2, 34 dosed) of the same molecule?
**A.** The value was 0 n.

**Q.** And the “Flatulence, Mild: patients with adverse event” value ([2]; Stage 2, 34 dosed)?
**A.** Its value is 1 n.

**Q.** And the “Flatulence, Moderate: patients with adverse event” value ([2]; Stage 2, 34 dosed)?
**A.** Its value is 0 n.

**Q.** And the “Headache, Mild: patients with adverse event” value ([2]; Stage 2, 34 dosed)?
**A.** Its value is 3 n.

**Q.** And the “Headache, Moderate: patients with adverse event” value ([2]; Stage 2, 34 dosed)?
**A.** Its value is 0 n.

**Q.** What about the “Increased urinary frequency, Mild: patients with adverse event” value ([2]; Stage 2, 34 dosed) of the same molecule?
**A.** The value was 2 n.

**Q.** And the “Increased urinary frequency, Moderate: patients with adverse event” value ([2]; Stage 2, 34 dosed)?
**A.** Its value is 0 n.

**Q.** What about the “Loss of appetite, Mild: patients with adverse event” value ([2]; Stage 2, 34 dosed) of the same molecule?
**A.** Its value is 0 n.

**Q.** What about the “Loss of appetite, Moderate: patients with adverse event” value ([2]; Stage 2, 34 dosed) of the same molecule?
**A.** Its value is 0 n.

**Q.** And the “Nausea, Mild: patients with adverse event” value ([2]; Stage 2, 34 dosed)?
**A.** The value was 18 n.

**Q.** What about the “Nausea, Moderate: patients with adverse event” value ([2]; Stage 2, 34 dosed) of the same molecule?
**A.** The value was 1 n.

**Q.** And the “Skin lesions-rash, Mild: patients with adverse event” value ([2]; Stage 2, 34 dosed)?
**A.** The value was 3 n.

**Q.** And the “Skin lesions-rash, Moderate: patients with adverse event” value ([2]; Stage 2, 34 dosed)?
**A.** The value was 0 n.

**Q.** What about the “Urinary retention, Mild: patients with adverse event” value ([2]; Stage 2, 34 dosed) of the same molecule?
**A.** The value was 1 n.

**Q.** What about the “Urinary retention, Moderate: patients with adverse event” value ([2]; Stage 2, 34 dosed) of the same molecule?
**A.** The value was 0 n.

**Q.** What about the “Urinary tract infection, Mild: patients with adverse event” value ([2]; Stage 2, 34 dosed) of the same molecule?
**A.** The value was 1 n.

**Q.** What about the “Urinary tract infection, Moderate: patients with adverse event” value ([2]; Stage 2, 34 dosed) of the same molecule?
**A.** The value was 2 n.

**Q.** And the “Vomiting, Mild: patients with adverse event” value ([2]; Stage 2, 34 dosed)?
**A.** The value was 2 n.

**Q.** And the “Vomiting, Moderate: patients with adverse event” value ([2]; Stage 2, 34 dosed)?
**A.** The value was 0 n.

**Q.** And the “Worsening acid reflux, Mild: patients with adverse event” value ([2]; Stage 2, 34 dosed)?
**A.** Its value is 4 n.

**Q.** And the “Worsening acid reflux, Moderate: patients with adverse event” value ([2]; Stage 2, 34 dosed)?
**A.** The value was 0 n.

**Q.** What about the “Worsening hemorrhoid, Mild: patients with adverse event” value ([2]; Stage 2, 34 dosed) of the same molecule?
**A.** The value was 1 n.

**Q.** What about the “Worsening hemorrhoid, Moderate: patients with adverse event” value ([2]; Stage 2, 34 dosed) of the same molecule?
**A.** Its value is 0 n.

**Q.** And the “Lower GI bleed, Severe: patients with adverse event” value ([2]; Stage 2, colonic diverticulosis, polyp, patient on aspirin, Plavix and naproxen, unrelated to ENT-01)?
**A.** The value was 1 n.
